Experimental data reported in US20220226341A1, “Pharmaceutical Composition for Alzheimer's Disease” (Kyoto University, priority 2019, published 2022).

Tests used:
[1] = Tissue distribution of radioactivity after single intravenous administration of 14C-labeled Compound 1 (blood-brain barrier penetration); assay type: in vivo; details: rats, single iv 5 mg/kg 14C-labeled; for Radioactivity concentration: n = 3
Protocol: [Testing the Penetration of the Compound Through the Blood-Brain Barrier]
Brain permeability (intracerebral transferability) of Compound 1 was evaluated.
^14C-labeled Compound 1 was intravenously administered once in a dose of 5 mg/kg (3.52 MBq/kg) to rats, and histological distribution (biodistribution) thereof was studied.

[2] = system: Human Herpesvirus Type 6A (HHV-6A); test: Antiviral test against HHV-6A in Sup-T1 cells, TaqMan PCR; assay type: cell-based
Protocol: [Antiviral Test Against HHV-6A]
An antiviral test against HHV-6A using Compound 1 was performed by the following procedure.
Virus strain: Human Herpesvirus Type 6A (HHV-6A)
(§1) Medium: RPMI-1640+10% FBS+1% penicillin/streptomycin
(§2) Detection method: TaqMan PCR
Sup-T1 cells were cultured at a concentration of 1×10^6/ml, Compound 1, 3 μM, was added, and one hour after, HHV-6A virus (1×10^4 infectious units) were sensitized (or unsensitized cells were prepared as a negative control).
After culturing at 37° C. for two hours, the medium was replaced, and Compound 1 was added again. Three days after, 500 μl of the medium was sampled, and HHV-6A virus was quantified by TaqMan PCR. Statistical analysis was performed by Student's t-test.

[3] = system: Human Herpesvirus Type 7 (HHV-7); test: Antiviral test against HHV-7 in Sup-T1 cells, TaqMan PCR; assay type: cell-based
Protocol: [Antiviral Test Against HHV-7]
An antiviral test against HHV-7 using Compound 1 was performed by the following procedure.
Virus strain: Human Herpesvirus Type 7 (HHV-7)
as §1, §2
Sup-T1 cells were cultured at a concentration of 1×10^6/ml, Compound 1, 10 μM, was added, and one hour after, HHV-7 virus (1×10^4 infectious units) were sensitized (or unsensitized cells were prepared as a negative control).
After culturing at 37° C. for two hours, the medium was replaced, and Compound 1 was added again. Five days after, 500 μl of the medium was sampled, and HHV-7 virus was quantified by TaqMan PCR. Statistical analysis was performed by Student's t-test.

Fc1ccc(N2CCCCC2)c(NC(=S)c2ccncc2)c1 [Compound 1]
Radioactivity concentration ([1]; Mandibular gland, 6 h): 995.48 ng eq. of Compound 1/g or mL | Radioactivity concentration ([1]; Mandibular gland, 24 h): 115.51 ng eq. of Compound 1/g or mL | Radioactivity concentration ([1]; Mandibular gland, 72 h): 8.87 ng eq. of Compound 1/g or mL | Radioactivity concentration ([1]; Mandibular lymph node, 5 min): 5693.66 ng eq. of Compound 1/g or mL | Radioactivity concentration ([1]; Mandibular lymph node, 6 h): 1018.12 ng eq. of Compound 1/g or mL | Radioactivity concentration ([1]; Mandibular lymph node, 24 h): 108.82 ng eq. of Compound 1/g or mL | Radioactivity concentration ([1]; Mandibular lymph node, 72 h): 8.13 ng eq. of Compound 1/g or mL | Radioactivity concentration ([1]; Pancreas, 5 min): 14356.66 ng eq. of Compound 1/g or mL | Radioactivity concentration ([1]; Pancreas, 6 h): 1206.84 ng eq. of Compound 1/g or mL | Radioactivity concentration ([1]; Pancreas, 24 h): 105.62 ng eq. of Compound 1/g or mL | Radioactivity concentration ([1]; Pancreas, 72 h): 7.37 ng eq. of Compound 1/g or mL | Radioactivity concentration ([1]; Prostate gland, 5 min): 5072.42 ng eq. of Compound 1/g or mL | Radioactivity concentration ([1]; Prostate gland, 6 h): 1268.5 ng eq. of Compound 1/g or mL | Radioactivity concentration ([1]; Prostate gland, 24 h): 114.45 ng eq. of Compound 1/g or mL | Radioactivity concentration ([1]; Prostate gland, 72 h): 7.62 ng eq. of Compound 1/g or mL | Radioactivity concentration ([1]; Skeletal muscle, 5 min): 2479.87 ng eq. of Compound 1/g or mL | Radioactivity concentration ([1]; Skeletal muscle, 6 h): 838.23 ng eq. of Compound 1/g or mL | Radioactivity concentration ([1]; Skeletal muscle, 24 h): 97.94 ng eq. of Compound 1/g or mL | Radioactivity concentration ([1]; Skeletal muscle, 72 h): 10.11 ng eq. of Compound 1/g or mL | Radioactivity concentration ([1]; Skin, 5 min): 3889.26 ng eq. of Compound 1/g or mL | Radioactivity concentration ([1]; Skin, 6 h): 2084.85 ng eq. of Compound 1/g or mL | Radioactivity concentration ([1]; Skin, 24 h): 150.1 ng eq. of Compound 1/g or mL | Radioactivity concentration ([1]; Skin, 72 h): 23.26 ng eq. of Compound 1/g or mL | Radioactivity concentration ([1]; Skin, 168 h): 6.57 ng eq. of Compound 1/g or mL | Radioactivity concentration ([1]; Small intestine, 5 min): 6555.86 ng eq. of Compound 1/g or mL | Radioactivity concentration ([1]; Small intestine, 6 h): 1979.83 ng eq. of Compound 1/g or mL | Radioactivity concentration ([1]; Small intestine, 24 h): 156.71 ng eq. of Compound 1/g or mL | Radioactivity concentration ([1]; Small intestine, 72 h): 9.85 ng eq. of Compound 1/g or mL | Radioactivity concentration ([1]; Spleen, 5 min): 6622.6 ng eq. of Compound 1/g or mL | Radioactivity concentration ([1]; Spleen, 6 h): 944.65 ng eq. of Compound 1/g or mL | Radioactivity concentration ([1]; Spleen, 24 h): 113.01 ng eq. of Compound 1/g or mL | Radioactivity concentration ([1]; Spleen, 72 h): 9.68 ng eq. of Compound 1/g or mL | Radioactivity concentration ([1]; Stomach, 5 min): 8261.97 ng eq. of Compound 1/g or mL | Radioactivity concentration ([1]; Stomach, 6 h): 2309.97 ng eq. of Compound 1/g or mL | Radioactivity concentration ([1]; Stomach, 24 h): 227.12 ng eq. of Compound 1/g or mL | Radioactivity concentration ([1]; Testis, 5 min): 2762.22 ng eq. of Compound 1/g or mL | Radioactivity concentration ([1]; Testis, 6 h): 1217.12 ng eq. of Compound 1/g or mL | Radioactivity concentration ([1]; Testis, 24 h): 128.05 ng eq. of Compound 1/g or mL | Radioactivity concentration ([1]; Testis, 72 h): 8.72 ng eq. of Compound 1/g or mL | Radioactivity concentration ([1]; Thymus, 5 min): 5034.15 ng eq. of Compound 1/g or mL | Radioactivity concentration ([1]; Thymus, 6 h): 954.13 ng eq. of Compound 1/g or mL | Radioactivity concentration ([1]; Thymus, 24 h): 97.42 ng eq. of Compound 1/g or mL | Radioactivity concentration ([1]; Thymus, 72 h): 5.22 ng eq. of Compound 1/g or mL | Radioactivity concentration ([1]; Thyroid gland, 5 min): 9550.71 ng eq. of Compound 1/g or mL | Radioactivity concentration ([1]; Thyroid gland, 6 h): 2369.71 ng eq. of Compound 1/g or mL | Radioactivity concentration ([1]; Thyroid gland, 24 h): 793.99 ng eq. of Compound 1/g or mL | Radioactivity concentration ([1]; Thyroid gland, 72 h): 298.2 ng eq. of Compound 1/g or mL | Radioactivity concentration ([1]; Thyroid gland, 168 h): 125.76 ng eq. of Compound 1/g or mL | Brain permeability (intracerebral transferability) ([1]; cerebellum, cerebrum, pituitary gland higher than plasma at 5 minutes): capable of penetrating the brain | Effect of suppressing growth of HHV-6A ([2]; 3 μM, in words): effect of suppressing growth of HHV-6A in the Compound 1-treated group was confirmed | HHV-6A copy number ([2]; Compound 1 3 μM, medium sampled three days after, TaqMan PCR): 6767.59 | Effect of suppressing growth of HHV-7 ([3]; 10 μM, in words): effect of suppressing growth of HHV-7 was confirmed | HHV-7 copy number ([3]; Compound 1 10 μM, medium sampled five days after, TaqMan PCR): 1844.89
